Test results reported in US9334289B2, “Cephem compound having catechol or pseudo-catechol structure” (SHIONOGI & CO., LTD., priority 2011, dated 2016).

Key:
Test in all cases: MIC, CLSI broth microdilution, Test Example 1
Format in all cases: cell-based
[1] = tested on: P. aeruginosa SR27060; settings: Pseudomonas aeruginosa, SR27060; IMP-1 MBL producing strain (carbapenem resistance strain); cation-adjusted Mueller Hinton broth containing human apo-transferrin; 5×10^5 cfu/mL; read-out: Minimum Inhibitory Concentration (MIC) P. aeruginosa SR27060
Experimental: (§1) Measurement of Minimum Inhibitory Concentration (MIC: μg/mL) was conducted according to CLSI (Clinical and Laboratory Standards Institute) method, and the amount of bacteria for inoculation was 5×10^5 cfu/mL, and cation-adjusted Mueller Hinton broth containing human apo-transferrin was used as a test medium, and the experiment was conducted using broth microdilution method. The bacteria used are listed below.

[2] = tested on: E. coli ATCCBAA-200; settings: Escherichia coli, ATCCBAA200; SHV-4 ESBL producing strain; cation-adjusted Mueller Hinton broth containing human apo-transferrin; 5×10^5 cfu/mL; read-out: Minimum Inhibitory Concentration (MIC) E. coli ATCC BAA-200
Experimental: as §1

[3] = tested on: K. pneumoniae ATCCBAA-1705; settings: Klebsiella pneumoniae, ATCCBAA1705; KPC-2 carbapenemase producing strain; cation-adjusted Mueller Hinton broth containing human apo-transferrin; 5×10^5 cfu/mL; read-out: Minimum Inhibitory Concentration (MIC) K. pneumoniae ATCCBAA-1705
Experimental: as §1

[4] = tested on: E. coli ATCCBAA-199; settings: Escherichia coli, ATCCBAA199; SHV-3 ESBL producing strain; cation-adjusted Mueller Hinton broth containing human apo-transferrin; 5×10^5 cfu/mL; read-out: Minimum Inhibitory Concentration (MIC) E. coli ATCC BAA-199
Experimental: as §1

[5] = tested on: P. aeruginosa SR24837; settings: Pseudomonas aeruginosa, SR24837; PER-1 ESBL producing strain; cation-adjusted Mueller Hinton broth containing human apo-transferrin; 5×10^5 cfu/mL; read-out: Minimum Inhibitory Concentration (MIC) P. aeruginosa SR24837
Experimental: as §1

[6] = tested on: A. baumannii SR27323; settings: Acinetobacter baumannii, SR27323; OXA-23, OXA-58 carbapenemase producing strain; cation-adjusted Mueller Hinton broth containing human apo-transferrin; 5×10^5 cfu/mL; read-out: Minimum Inhibitory Concentration (MIC) A. baumannii SR27323
Experimental: as §1

[7] = tested on: P. aeruginosa SR24; settings: Pseudomonas aeruginosa, SR24; Ceftazidime resistance strain; cation-adjusted Mueller Hinton broth containing human apo-transferrin; 5×10^5 cfu/mL; read-out: Minimum Inhibitory Concentration (MIC) P. aeruginosa SR24

SMILES | MIC [1] [µg/mL] | MIC [2] [µg/mL] | MIC [3] [µg/mL] | MIC [4] [µg/mL] | MIC [5] [µg/mL] | MIC [6] [µg/mL] | MIC [7] [µg/mL]
CC(C)(O/N=C(\C(=O)N[C@@H]1C(=O)N2C(C(=O)[O-])=C(C[N+]34CCC(CNC(=O)c5ccc(O)c(O)c5Cl)(CC3)CC4)CS[C@H]12)c1csc(N)n1)C(=O)[O-].[Na+] [Comparative Compound 1, reference compound] | 4 | 4 | 0.125 | 2 | > 32 | 1 | 0.5
CC(C)(O/N=C(\C(=O)N[C@@H]1C(=O)N2C(c3nnn[n-]3)=C(C[N+]3(CCNC(=O)c4ccc(O)c(O)c4Cl)CCCC3)CS[C@H]12)c1csc(N)n1)C(=O)[O-].[Na+] [Compound I-1] | 0.5 | 0.125 | ≤ 0.031 | 0.063 | 0.5 | 0.5 | 0.5
CC(C)(O/N=C(\C(=O)N[C@@H]1C(=O)N2C(c3nnn[n-]3)=C(C[N+]3(C)[C@@H]4CC[C@H]3C[C@@H](NC(=O)c3ccc(O)c(O)c3Cl)C4)CS[C@H]12)c1csc(N)n1)C(=O)[O-].[Na+] (stereo partly drawn) [Compound I-2] | 1 | 1 | ≤ 0.031 | 0.5 | 0.25 | 1 | 0.25
Nc1nc(/C(=N/O[C@@H](CC(=O)[O-])C(=O)[O-])C(=O)N[C@@H]2C(=O)N3C(c4nnn[n-]4)=C(C[N+]4(CCNC(=O)c5ccc(O)c(O)c5Cl)CCCC4)CS[C@H]23)cs1.[Na+].[Na+] [Compound I-3] | 1 | 0.063 | ≤ 0.031 | ≤ 0.031 | 2 | 0.25 | 0.5
Nc1nc(/C(=N/O[C@@H](CC(=O)[O-])C(=O)[O-])C(=O)N[C@@H]2C(=O)N3C(c4nnn[n-]4)=C(C[N+]45CCC[C@H]4CN(C(=O)c4cc(O)c(O)c(Cl)c4)CC5)CS[C@H]23)cs1.[Na+].[Na+] (stereo partly drawn) [Compound I-4] | 0.5 | 0.5 | ≤ 0.031 | 0.125 | 4 | 0.5 | 0.5
CC(C)(O/N=C(\C(=O)N[C@@H]1C(=O)N2C(c3nnn[n-]3)=C(C[N+]34CCC[C@H]3CN(C(=O)c3cc(O)c(O)c(F)c3)CC4)CS[C@H]12)c1csc(N)n1)C(=O)[O-].[Na+] (stereo partly drawn) [Compound I-5] | 0.5 | 1 | 0.063 | 0.5 | 2 | 0.125 | 0.25
CC(C)(O/N=C(\C(=O)N[C@@H]1C(=O)N2C(c3nnn[n-]3)=C(C[N+]3(C)[C@@H]4CC[C@H]3C[C@@H](NC(=O)c3cc(O)c(O)c(F)c3)C4)CS[C@H]12)c1csc(N)n1)C(=O)[O-].[Na+] (stereo partly drawn) [Compound I-6] | 0.5 | 0.5 | ≤ 0.031 | 0.25 | 1 | 2 | 0.25
CC(C)(O/N=C(\C(=O)N[C@@H]1C(=O)N2C(c3nnn[n-]3)=C(C[N+]3(CCNC(=O)c4ccc(O)c(O)c4Cl)CCCC3)C[S+]([O-])[C@H]12)c1csc(N)n1)C(=O)[O-].[Na+] (stereo partly drawn) [Compound I-7] | 4 | 0.5 | 0.063 | 0.25 | 1 | 16 | 2
CC(C)(O/N=C(\C(=O)N[C@@H]1C(=O)N2C(c3nnn[n-]3)=C(C[N+]34CCC(CNC(=O)c5cc(=O)c(O)c[nH]5)(CC3)CC4)CS[C@H]12)c1csc(N)n1)C(=O)[O-].[Na+] [Compound I-9] | 4 | 0.5 | 0.063 | 0.25 | 2 | 1 | 0.25
CC(C)(O/N=C(\C(=O)N[C@@H]1C(=O)N2C(c3nnn[n-]3)=C(C[N+]34CCC(CNC(=O)c5ccc(O)c(O)c5Cl)(CC3)CC4)CS[C@H]12)c1csc(N)n1)C(=O)[O-].[Na+] [Compound I-10] | 2 | 1 | ≤ 0.031 | 0.5 | 2 | 0.5 | 0.25
CC(C)(O/N=C(\C(=O)N[C@@H]1C(=O)N2C(c3nnn[n-]3)=C(C[N+](C)(C)CCNC(=O)c3ccc(O)c(O)c3Cl)CS[C@H]12)c1csc(N)n1)C(=O)[O-].[Na+] [Compound I-11] | 1 | 0.5 | ≤ 0.031 | 0.125 | 0.063 | 0.25 | 0.25
CC(C)(O/N=C(\C(=O)N[C@@H]1C(=O)N2C(c3nnn[n-]3)=C(C[N+]34CCC[C@H]3CN(C(=O)c3cc(O)c(O)c(Cl)c3)CC4)CS[C@H]12)c1csc(N)n1)C(=O)[O-].[Na+] (stereo partly drawn) [Compound I-13] | 0.5 | 1 | ≤ 0.031 | 0.5 | 2 | 2 | 0.125
C[N+]1(CC2=C(c3nnn[n-]3)N3C(=O)[C@@H](NC(=O)/C(=N\O[C@@H](CC(=O)[O-])C(=O)[O-])c4csc(N)n4)[C@H]3SC2)[C@@H]2CC[C@H]1C[C@@H](NC(=O)c1ccc(O)c(O)c1Cl)C2.[Na+].[Na+] (stereo partly drawn) [Compound I-14] | 1 | 1 | ≤ 0.031 | 0.25 | 8 | 0.125 | 0.5
CC(C)(O/N=C(\C(=O)N[C@@H]1C(=O)N2C(c3nnn[n-]3)=C(C[n+]3ccc(NC(=O)c4ccc(O)c(O)c4Cl)cc3)CS[C@H]12)c1csc(N)n1)C(=O)[O-].[Na+] [Compound I-15] | 0.5 | 0.25 | ≤ 0.031 | 0.063 | ≤ 0.031 | ≤ 0.031 | 0.125
CC(C)(O/N=C(\C(=O)N[C@@H]1C(=O)N2C(c3nnn[n-]3)=C(Cn3cc(NC(=O)c4ccc(O)c(O)c4Cl)[n+]4c3CCCC4)CS[C@H]12)c1csc(N)n1)C(=O)[O-].[Na+] [Compound I-16] | 0.25 | 0.25 | ≤ 0.031 | 0.25 | 1 | 1 | 0.125
CC(C)(O/N=C(\C(=O)N[C@@H]1C(=O)N2C(c3nnn[n-]3)=C(C[N+]34CCC(CNC(=O)c5cc(=O)c(O)cn5O)(CC3)CC4)CS[C@H]12)c1csc(N)n1)C(=O)[O-].[Na+] [Compound I-18] | 2 | 0.25 | ≤ 0.031 | 0.125 | 1 | 0.125 | 0.5
Cc1c(O)c(O)cc2cc[n+](CC3=C(c4nnn[n-]4)N4C(=O)[C@@H](NC(=O)/C(=N\OC(C)(C)C(=O)[O-])c5csc(N)n5)[C@H]4SC3)cc12.[Na+] [Compound I-22] | 0.25 | 0.125 | ≤ 0.031 | 0.063 | 0.25 | 0.125 | ≤ 0.031
CC(C)(O/N=C(\C(=O)N[C@@H]1C(=O)N2C(c3nn[n-]n3)=C(C[N+]3(Cc4nnc(-c5ccc(O)c(O)c5Cl)o4)CCCC3)CS[C@H]12)c1csc(N)n1)C(=O)[O-].[Na+] [Compound I-45] | 0.5 | 0.25 | ≤ 0.031 | 0.125 | 0.5 | 0.25 | 0.125
CC(C)(O/N=C(\C(=O)N[C@@H]1C(=O)N2C(c3nn[n-]n3)=C(C[N+]3(Cc4nc(-c5ccc(O)c(O)c5Cl)no4)CCCC3)CS[C@H]12)c1csc(N)n1)C(=O)[O-].[Na+] [Compound I-46] | 0.5 | 0.5 | ≤ 0.031 | 0.125 | 1 | 0.5 | 0.25
CC(C)(O/N=C(\C(=O)N[C@@H]1C(=O)N2C(c3nn[n-]n3)=C(C[N+]3(C)CCC(NC(=O)c4ccc(O)c(O)c4Cl)CC3)CS[C@H]12)c1csc(N)n1)C(=O)[O-].[Na+] (stereo partly drawn) [Compound I-47] | 1 | 1 | 0.063 | 0.5 | 0.5 | 0.25 | 0.125
CC(C)(O/N=C(\C(=O)N[C@@H]1C(=O)N2C(c3nn[n-]n3)=C(C[n+]3ccc(C(=O)c4ccc(O)c(O)c4Cl)cc3)CS[C@H]12)c1csc(N)n1)C(=O)[O-].[Na+] [Compound I-48] | 0.25 | 0.25 | ≤ 0.031 | 0.25 | 0.125 | 0.5 | ≤ 0.031
